Literature values in US20240293300A1, “SKIN PENETRATION COSMETIC MATERIAL, AND SKIN PENETRATION COSMETIC MATERIAL PRODUCTION METHOD” (SHISEIDO COMPANY, LTD., priority 2021, published 2024).
Where a SMILES comes first, the peptide text is derived from it.

conditions: 1-octanol/water partition coefficient

Molecule	Log P
Cc1cc(C)nc(-n2nc(C)cc2C)n1.Cl [compound a, 2-(3,5-dimethylpyrazol-1-yl)-4,6-dimethyl pyrimidine hydrochloride]	1.36
N[C@@H](CCC(=O)O)C(=O)O [glutamic acid]	−3.7
NCC(=O)NCC(=O)O [glycylglycine] (H-Gly-Gly-OH)	−2.3
piperidine propionic acid	−2.06
